Assay results: patent publication US8686044B2, “Amide derivative, pest control agent containing the amide derivative, and use of the amide derivative” (Mitsui Chemicals Agro, Inc., priority 2008, dated 2014)
Read-outs that look alike come from different tables or passages of the source.

Legend:
Format in all cases: in vivo
Plutella xylostella = assay: Pesticidal test against Plutella xylostella (cabbage leaf dip); details: foliar, 144 h, concentration 1 ppm, 2-stage larvae, examined after 6 days, 25° C., read-out: pesticidal rate
Method in brief: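 Cabbage leaf pieces dipped 30 s in test solution at a predetermined concentration, air-dried, then offered to 2nd-instar larvae, five per group in duplicate. Held at 25° C; living and dead larvae counted after 6 days.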

Musca domestica = assay: Pesticidal test against Musca domestica (petri dish dry film); details: 24 h, concentration 100 ppm, female adults, examined after 1 day, 25° C., read-out: pesticidal rate
Protocol: Pesticidal Test against Musca domestica
1 ml of an acetone solution in which a test compound had been prepared at a predetermined concentration was added dropwise to a petri dish having a diameter of 9 cm, and air-dried, and then the female adults of Musca domestica were released and the petri dish was capped. They were left to stand in a thermostatic chamber at 25° C., and the numbers of the living pests and the dead pests were examined after 1 day. The test was carried out with five larvae per group in two replicates.

Helicoverpa armigera = assay: Pesticidal test against Helicoverpa armigera (cabbage leaf disk dip); details: foliar, 72 h, concentration 1 ppm, 2-stage larvae, examined after 3 days, 25° C., read-out: pesticidal rate
Protocol: Pesticidal Test against Helicoverpa armigera A cabbage leaf disk was immersed for 30 seconds in a chemical solution in which a test compound had been prepared at a predetermined concentration, and air-dried. The leaf disk was put into a 6-hole plastic cup having a filter paper laid on the bottom thereof, and 2-stage larvae of Helicoverpa armigera were released with one insect being released per hole. They were left to stand in a thermostatic chamber at 25° C., and the numbers of the living pests and the dead pests were examined after 3 days. The test was carried out with five larvae per group in two replicates. Further, the above compound (A) was used as a comparative compound.

Spodoptera litura = assay: Pesticidal test against Spodoptera litura (cabbage leaf dip); details: foliar, 144 h, concentration 1 ppm, 2-stage larvae, examined after 6 days, 25° C., read-out: pesticidal rate
Method in brief: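 Cabbage leaf pieces dipped 30 seconds in compound solution at a predetermined concentration and air-dried, then offered to second-stage larvae, five per group in two replicates. Held at 25° C. Living and dead larvae counted after 6 days.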

Adoxophyes honmai = assay: Pesticidal test against Adoxophyes honmai (artificial feed dip); details: 144 h, 2-stage larvae, examined after 6 days, 25° C., read-out: pesticidal rate; for pest or weed control at 1 ppm: concentration 1 ppm
Protocol: Pesticidal Test against Adoxophyes honmai A thinly sliced artificial feed was immersed for 30 seconds in a chemical solution in which a test compound had been prepared at a predetermined concentration, and air-dried, and then put into a 7 cm polyethylene cup having a filter paper laid on the bottom thereof, and 2-stage larvae of Adoxophyes honmai were released. They were left to stand in a thermostatic chamber at 25° C., and the numbers of the living pests and the dead pests were examined after 6 days. The test was carried out with five larvae per group in two replicates. Further, the above compound (A) was used as a comparative compound.

Laodelphax striatellus = assay: Pesticidal test against Laodelphax striatellus (rice seedling spray); details: 144 h, read-out: pesticidal rate
Method in brief: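 Rice seedlings sprayed with 2.5 ml acetone solution of compound at a predetermined concentration, air-dried, then infested with third-stage Laodelphax striatellus larvae in capped water-containing tubes at 25 °C. Living and dead insects counted after 6 days; ten larvae per group, two replicates.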

[1] = concentration 100 ppm, 3-stage larvae, examined after 6 days, 25° C.

O=C(Nc1cccc(C(=O)Nc2c(Br)cc(C(F)(C(F)(F)F)C(F)(F)C(F)(F)F)cc2C(F)(F)F)c1)c1cccc(F)c1 (stereo not drawn) [6-348]
≥ 70%: pest or weed control at 1 ppm (Plutella xylostella) | pest or weed control at 100 ppm (Musca domestica) | pest or weed control at 1 ppm (Helicoverpa armigera) | pest or weed control at 1 ppm (Spodoptera litura) | pest or weed control at 1 ppm (Adoxophyes honmai)

O=C(Nc1c(I)cc(C(F)(C(F)(F)F)C(F)(F)F)cc1C(F)(F)F)c1cccc(NC(=O)c2ccc(F)cc2Cl)c1 [6-449]
≥ 70%: pest or weed control at 1 ppm (Plutella xylostella) | pest or weed control at 1 ppm (Helicoverpa armigera) | pest or weed control at 1 ppm (Spodoptera litura) | pest or weed control at 1 ppm (Adoxophyes honmai)

O=C(Nc1cccc(C(=O)Nc2c(I)cc(C(F)(C(F)(F)F)C(F)(F)C(F)(F)F)cc2C(F)(F)F)c1)c1cccc(F)c1 (stereo not drawn) [6-504]
≥ 70%: pest or weed control at 1 ppm (Plutella xylostella) | pest or weed control at 100 ppm (Musca domestica) | pest or weed control at 1 ppm (Helicoverpa armigera) | pest or weed control at 1 ppm (Spodoptera litura) | pest or weed control at 1 ppm (Adoxophyes honmai)

O=C(Nc1cccc(C(=O)Nc2c(I)cc(C(F)(C(F)(F)F)C(F)(F)C(F)(F)F)cc2C(F)(F)F)c1)c1ccc(F)cc1 (stereo not drawn) [6-505]
≥ 70%: pest or weed control at 1 ppm (Plutella xylostella) | pest or weed control at 100 ppm (Musca domestica) | pest or weed control at 1 ppm (Helicoverpa armigera) | pest or weed control at 1 ppm (Spodoptera litura) | pest or weed control at 1 ppm (Adoxophyes honmai)

N#Cc1cccc(C(=O)Nc2cccc(C(=O)Nc3c(I)cc(C(F)(C(F)(F)F)C(F)(F)C(F)(F)F)cc3C(F)(F)F)c2)c1 (stereo not drawn) [6-522]
≥ 70%: pest or weed control at 1 ppm (Plutella xylostella) | pest or weed control at 100 ppm (Musca domestica) | pest or weed control at 1 ppm (Helicoverpa armigera) | pest or weed control at 1 ppm (Spodoptera litura) | pest or weed control at 1 ppm (Adoxophyes honmai)

N#Cc1ccc(C(=O)Nc2cccc(C(=O)Nc3c(I)cc(C(F)(C(F)(F)F)C(F)(F)C(F)(F)F)cc3C(F)(F)F)c2)cc1 (stereo not drawn) [6-523]
≥ 70%: pest or weed control at 1 ppm (Plutella xylostella) | pest or weed control at 100 ppm (Musca domestica) | pest or weed control at 1 ppm (Helicoverpa armigera) | pest or weed control at 1 ppm (Spodoptera litura) | pest or weed control at 10 ppm (Adoxophyes honmai; concentration 10 ppm)

O=C(Nc1c(I)cc(C(F)(C(F)(F)F)C(F)(F)C(F)(F)F)cc1C(F)(F)F)c1cccc(NC(=O)c2c(F)cccc2F)c1 (stereo not drawn) [6-524]
≥ 70%: pest or weed control at 1 ppm (Plutella xylostella) | pest or weed control at 100 ppm (Musca domestica) | pest or weed control at 1 ppm (Helicoverpa armigera) | pest or weed control at 1 ppm (Spodoptera litura) | pest or weed control at 1 ppm (Adoxophyes honmai)

N#Cc1cccc(C(=O)Nc2cccc(C(=O)Nc3c(Br)cc(C(F)(C(F)(F)F)C(F)(F)C(F)(F)F)cc3Br)c2F)c1 (stereo not drawn) [6-1202]
≥ 70%: pest or weed control at 1 ppm (Plutella xylostella) | pest or weed control at 1 ppm (Spodoptera litura) | pest or weed control at 100 ppm (Laodelphax striatellus; [1]) | pest or weed control at 1 ppm (Adoxophyes honmai)

O=C(Nc1cccc(C(=O)Nc2c(I)cc(C(F)(C(F)(F)F)C(F)(F)F)cc2I)c1F)c1cccc(F)c1 [6-1262]
≥ 70%: pest or weed control at 1 ppm (Plutella xylostella) | pest or weed control at 1 ppm (Helicoverpa armigera) | pest or weed control at 1 ppm (Spodoptera litura) | pest or weed control at 100 ppm (Laodelphax striatellus; [1]) | pest or weed control at 1 ppm (Adoxophyes honmai)

N#Cc1ccc(C(=O)Nc2cccc(C(=O)Nc3c(I)cc(C(F)(C(F)(F)F)C(F)(F)F)cc3I)c2F)cc1 [6-1281]
≥ 70%: pest or weed control at 1 ppm (Plutella xylostella) | pest or weed control at 100 ppm (Musca domestica) | pest or weed control at 1 ppm (Helicoverpa armigera) | pest or weed control at 1 ppm (Spodoptera litura) | pest or weed control at 100 ppm (Laodelphax striatellus; [1])

O=C(Nc1cccc(C(=O)Nc2c(I)cc(C(F)(C(F)(F)F)C(F)(F)C(F)(F)F)cc2I)c1F)c1ccc(F)cc1 (stereo not drawn) [6-1341]
≥ 70%: pest or weed control at 1 ppm (Plutella xylostella) | pest or weed control at 100 ppm (Musca domestica) | pest or weed control at 1 ppm (Helicoverpa armigera) | pest or weed control at 1 ppm (Spodoptera litura) | pest or weed control at 100 ppm (Laodelphax striatellus; [1]) | pest or weed control at 1 ppm (Adoxophyes honmai)

O=C(Nc1cccc(C(=O)Nc2c(Br)cc(C(F)(C(F)(F)F)C(F)(F)C(F)(F)F)cc2C(F)(F)F)c1F)c1cccnc1Cl (stereo not drawn) [6-1688]
≥ 70%: pest or weed control at 1 ppm (Plutella xylostella) | pest or weed control at 1 ppm (Spodoptera litura) | pest or weed control at 100 ppm (Laodelphax striatellus; [1]) | pest or weed control at 1 ppm (Adoxophyes honmai)

O=C(Nc1cccc(C(=O)Nc2c(I)cc(C(F)(C(F)(F)F)C(F)(F)C(F)(F)F)cc2C(F)(F)F)c1F)c1ccccc1 (stereo not drawn) [6-1808]
≥ 70%: pest or weed control at 1 ppm (Plutella xylostella) | pest or weed control at 100 ppm (Musca domestica) | pest or weed control at 1 ppm (Helicoverpa armigera) | pest or weed control at 1 ppm (Spodoptera litura) | pest or weed control at 100 ppm (Laodelphax striatellus; [1])

CN(C(=O)c1cccc(C#N)c1)c1cccc(C(=O)Nc2c(I)cc(C(F)(C(F)(F)F)C(F)(F)C(F)(F)F)cc2C(F)(F)F)c1 (stereo not drawn) [7-522]
≥ 70%: pest or weed control at 1 ppm (Plutella xylostella) | pest or weed control at 100 ppm (Musca domestica) | pest or weed control at 1 ppm (Helicoverpa armigera) | pest or weed control at 1 ppm (Spodoptera litura) | pest or weed control at 1 ppm (Adoxophyes honmai)

CN(C(=O)c1cccc(C#N)c1)c1cccc(C(=O)Nc2c(Br)cc(C(F)(C(F)(F)F)C(F)(F)C(F)(F)F)cc2Br)c1F (stereo not drawn) [7-1202]
≥ 70%: pest or weed control at 1 ppm (Plutella xylostella) | pest or weed control at 1 ppm (Spodoptera litura) | pest or weed control at 100 ppm (Laodelphax striatellus; [1]) | pest or weed control at 1 ppm (Adoxophyes honmai)

CN(C(=O)c1ccccc1)c1cccc(C(=O)Nc2c(I)cc(C(F)(C(F)(F)F)C(F)(F)C(F)(F)F)cc2I)c1F (stereo not drawn) [7-1338]
≥ 70%: pest or weed control at 1 ppm (Plutella xylostella) | pest or weed control at 100 ppm (Musca domestica) | pest or weed control at 1 ppm (Helicoverpa armigera) | pest or weed control at 1 ppm (Spodoptera litura) | pest or weed control at 100 ppm (Laodelphax striatellus; [1]) | pest or weed control at 1 ppm (Adoxophyes honmai)

CN(C(=O)c1ccc(C#N)cc1)c1cccc(C(=O)Nc2c(I)cc(C(F)(C(F)(F)F)C(F)(F)F)cc2C(F)(F)F)c1F [7-1751]
≥ 70%: pest or weed control at 1 ppm (Plutella xylostella) | pest or weed control at 1 ppm (Helicoverpa armigera) | pest or weed control at 1 ppm (Spodoptera litura) | pest or weed control at 100 ppm (Laodelphax striatellus; [1])

CN(C(=O)c1cccc(C#N)c1)c1cccc(C(=O)Nc2c(I)cc(C(F)(C(F)(F)F)C(F)(F)C(F)(F)F)cc2C(F)(F)F)c1F (stereo not drawn) [7-1828]
≥ 70%: pest or weed control at 1 ppm (Plutella xylostella) | pest or weed control at 100 ppm (Musca domestica) | pest or weed control at 1 ppm (Spodoptera litura) | pest or weed control at 100 ppm (Laodelphax striatellus; [1])

CN(C(=O)c1ccccc1)c1cccc(C(=O)N(C)c2c(Br)cc(C(F)(C(F)(F)F)C(F)(F)F)cc2C(F)(F)F)c1F [9-2164, N-(2-bromo-4-(perfluoropropan-2-yl)-6-(trifluoromethyl)phenyl)-2-fluoro-N-methyl-3-(N-methylbenzamide)benzamide]
≥ 70%: pest or weed control at 1 ppm (Plutella xylostella) | pest or weed control at 100 ppm (Musca domestica) | pest or weed control at 1 ppm (Spodoptera litura) | pest or weed control at 100 ppm (Laodelphax striatellus; [1])

CN(C(=O)c1cccc(F)c1)c1cccc(C(=O)N(C)c2c(I)cc(C(F)(C(F)(F)F)C(F)(F)F)cc2C(F)(F)F)c1F [9-2322]
≥ 70%: pest or weed control at 1 ppm (Plutella xylostella) | pest or weed control at 100 ppm (Musca domestica) | pest or weed control at 1 ppm (Spodoptera litura) | pest or weed control at 100 ppm (Laodelphax striatellus; [1])

CN(C(=O)OCC(Cl)(Cl)Cl)c1cccc(C(=O)Nc2c(I)cc(C(F)(C(F)(F)F)C(F)(F)F)cc2C(F)(F)F)c1F [12-835]
≥ 70%: pest or weed control at 1 ppm (Plutella xylostella) | pest or weed control at 100 ppm (Musca domestica) | pest or weed control at 1 ppm (Spodoptera litura) | pest or weed control at 100 ppm (Laodelphax striatellus)

CN(C(=O)OCC(Cl)(Cl)Cl)c1cccc(C(=O)Nc2c(I)cc(C(F)(C(F)(F)F)C(F)(F)C(F)(F)F)cc2C(F)(F)F)c1F (stereo not drawn) [12-864, 2,2,2-trichloroethyl 2-fluoro-3-(2-iodo-4-(perfluorobutan-2-yl)-6-(trifluoromethyl)phenylcarbamoyl)phenyl(methyl)carbamate]
≥ 70%: pest or weed control at 1 ppm (Plutella xylostella) | pest or weed control at 100 ppm (Musca domestica) | pest or weed control at 1 ppm (Spodoptera litura) | pest or weed control at 100 ppm (Laodelphax striatellus)
